Test results reported in patent US20090264650A1, “Prophylactic/Therapeutic Agent for Diabetes” (priority 2005, published 2009).

biological target: T1, 11βHSD1 (Homo sapiens, UniProt P28845); assay: Determination of 11βHSD1 inhibitory activity (microsome fraction, cortisone to cortisole, competitive ELISA); type: biochemical; conditions: microsome fraction of Reference Example 2a; 500 nM cortisone, 400 μM NADPH substrate solution; room temperature 60 min
T1 construct: made in house; host or cells: Sf-21 insect cells infected with recombinant baculovirus BAC-HHSD1 (pFASTBAC1-derived pFB-hHSD1); microsome fraction
T1 sequence (P28845 whole entry): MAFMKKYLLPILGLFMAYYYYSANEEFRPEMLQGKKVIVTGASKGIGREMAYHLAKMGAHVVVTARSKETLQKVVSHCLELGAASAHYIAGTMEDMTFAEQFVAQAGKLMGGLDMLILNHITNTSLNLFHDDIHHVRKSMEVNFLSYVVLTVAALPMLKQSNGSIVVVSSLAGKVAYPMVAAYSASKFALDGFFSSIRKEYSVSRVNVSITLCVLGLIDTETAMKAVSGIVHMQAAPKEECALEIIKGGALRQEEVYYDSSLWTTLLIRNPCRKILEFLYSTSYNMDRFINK
Procedure: The enzyme reaction was performed in a polypropylene 96-well plate (Corning). The microsome fraction obtained in Reference Example 2a was diluted with a buffer (30 mM Tris-HCl, 1 mM EDTA, 0.1% BSA, pH 7.2) to a concentration of 100 μg/ml. A solution (2.5 μl) of the test compound in dimethyl sulfoxide was added to the obtained diluted solution (22.5 μl) and the mixture was incubated at room temperature for 5 min. A substrate solution (500 nM cortisone, 400 μM NADPH) (25 μl) was added to the obtained suspension, allowed to react at room temperature for 60 min and the reaction was quenched by the addition of 2 mM 18-β-glycyrrhetinic acid (Sigma Ltd.) solution (5 μl). The produced cortisole was quantified by the following competitive ELISA.
Anti-mouse IgG antibody (Chemicon) was suspended in 100 mM sodium phosphate buffer (pH 9.0) to a concentration of 5 μg/ml. The obtained suspension (100 μl) was added to a 96-well black plate (Maxisorp, Nunc), and incubated overnight at 4° C. to immobilize a first antibody. The plate was washed with PBS containing 0.05% Tween20 (Bio-Rad), 30% block ace (Yukijirushi) ([…]) diluted with PBS was added. After blocking at room temperature for 1 hr or more, the plate was washed with PBS containing 0.05% Tween20. Anti-cortisole antibody (assay design) (100 μl) diluted 4-fold with a buffer (30 mM Tris-HCl, 1 mM EDTA, pH 7.2) was added to the plate, and the plate was incubated at room temperature for 90 min. The plate was washed 4 times with PBS containing 0.05% Tween20, the enzyme reaction mixture (25 μl) and alkaline phosphatase conjugated cortisole (assay design) (25 μl) were added, and the plate was incubated at room temperature for 120 min. The plate was washed 4 times with PBS containing 0.05% Tween20, a luminescence substrate for alkaline phosphatase, Immun star (Enhancer plus, Bio-Rad) (50 μl) was added. The plate was incubated at room temperature for 10 min and the level of luminescence was measured by Arvo malfi label counter (Wallac). The concentration (IC50 value) of the test compound necessary for inhibiting the 11βHSD1 activity by 50% was calculated by PRISM2.01 (Graphpad Software).

IC50 [nM]	Compound
46	CC1(O)CCC(N2CCC(Cc3ccc(OCc4nc(-c5ccc(F)cc5)no4)cc3Cl)C2=O)CC1 (stereo not shown) [Example 619A, 3-(2-chloro-4-{[3-(4-fluorophenyl)-1,2,4-oxadiazol-5-yl]methoxy}benzyl)-1-(4-hydroxy-4-methylcyclohexyl)pyrrolidin-2-one]
37	CS(=O)(=O)Nc1cccc(-c2ccc(CC3CCN(C4C5CC6CC4CC(O)(C6)C5)C3=O)c(Cl)c2)c1 (stereo not shown) [Example 470A, N-(3′-chloro-4′-{[1-(5-hydroxy-2-adamantyl)-2-oxopyrrolidin-3-yl]methyl}biphenyl-3-yl)methanesulfonamide]
29	CC1(O)CCC(N2CCC(Cc3ccc(Cl)cc3Cl)C2=O)CC1 (single isomer, unassigned) [Example 413A, 3-(2,4-dichlorobenzyl)-1-(4-hydroxy-4-methylcyclohexyl)pyrrolidin-2-one]
98	CC1(O)CCC(N2CCC(Cc3ccc(OCC(=O)NCc4ccc(C(F)(F)F)cc4)cc3Cl)C2=O)CC1 (single isomer, unassigned) [Example 603A, 2-(3-chloro-4-{[1-(4-hydroxy-4-methylcyclohexyl)-2-oxopyrrolidin-3-yl]methyl}phenoxy)-N-[4-(trifluoromethyl)benzyl]acetamide]
26	CC1(O)CCC(N2CCC(Cc3ccc(OCC(=O)NCc4ccc(C(F)(F)F)cc4)cc3Cl)C2=O)CC1 (single isomer, unassigned) [Example 602A, 2-(3-chloro-4-{[1-(4-hydroxy-4-methylcyclohexyl)-2-oxopyrrolidin-3-yl]methyl}phenoxy)-N-[4-(trifluoromethyl)benzyl]acetamide]
130	Cc1ccccc1CN1CCCN(Cc2c(Cl)cccc2Cl)C1=O [Example 2D, 1-(2,6-dichlorobenzyl)-3-(2-methylbenzyl)tetrahydropyrimidin-2(1H)-one]
7.9	O=C1C(Cc2c(Cl)cccc2Cl)CCN1C1CCCCC1 (stereo not shown) [Example 9A, 1-cyclohexyl-3-(2,6-dichlorobenzyl)pyrrolidin-2-one]
53	Cc1ccccc1CN1C(=O)N(Cc2c(Cl)cccc2Cl)CC1(C)O (stereo not shown) [Example 32B, 1-(2,6-dichlorobenzyl)-4-hydroxy-4-methyl-3-(2-methylbenzyl)imidazolidin-2-one]
56	COc1ccccc1CC1CCN(C2CCc3ccccc32)C1=O (single isomer, unassigned) [Example 66A, 1-(2,3-dihydro-1H-inden-1-yl)-3-(2-methoxybenzyl)pyrrolidin-2-one]
430	CC1(O)CCC(N2CCC(Cc3ccc(Cl)cc3Cl)C2=O)CC1 (single isomer, unassigned) [Example 412A, 3-(2,4-dichlorobenzyl)-1-(4-hydroxy-4-methylcyclohexyl)pyrrolidin-2-one]
26	CC1(O)CCC(N2CCC(Cc3c(Cl)cccc3Cl)C2=O)CC1 (single isomer, unassigned) [Example 38A, 3-(2,6-dichlorobenzyl)-1-(4-hydroxy-4-methylcyclohexyl)pyrrolidin-2-one]
9.9	O=C1N(Cc2ccc(C(F)(F)F)cc2)CCN1c1ccc(CC2CCN(C3C4CC5CC3CC(O)(C5)C4)C2=O)c(Cl)c1 (stereo not shown) [Example 510A, 1-(3-chloro-4-{[1-(5-hydroxy-2-adamantyl)-2-oxopyrrolidin-3-yl]methyl}phenyl)-3-[4-(trifluoromethyl)benzyl]imidazolidin-2-one]
19	O=C(Nc1ccc(CO)cc1)Nc1ccc(CC2CCN(C3C4CC5CC3CC(O)(C5)C4)C2=O)c(Cl)c1 (stereo not shown) [Example 468A, N-(3-chloro-4-{[1-(5-hydroxy-2-adamantyl)-2-oxopyrrolidin-3-yl]methyl}phenyl)-N′-[4-(hydroxymethyl)phenyl]urea]
150	CC1(O)CCC(N2CCC(Cc3ccc(-c4cccc(CO)c4)cc3Cl)C2=O)CC1 (stereo not shown) [Example 654A, 3-{[3-chloro-3′-(hydroxymethyl)biphenyl-4-yl]methyl}-1-(4-hydroxy-4-methylcyclohexyl)pyrrolidin-2-one]
110	Cc1ccccc1CN1CCCC(Cc2c(Cl)cccc2Cl)C1=O (stereo not shown) [Example 5C, 3-(2,6-dichlorobenzyl)-1-(2-methylbenzyl)piperidin-2-one]
85	CN(Cc1c(Cl)cccc1Cl)C1CCN(C2CCCCC2)C1=O (stereo not shown) [Example 94A, 1-cyclohexyl-3-[N-(2,6-dichlorobenzyl)N-methylamino]pyrrolidin-2-one]
